Laboratory results taken from US20130195926A1, “MODULATION OF NITRIC OXIDE SIGNALING TO NORMALIZE TUMOR VASCULATURE” (The General Hospital Corporation, priority 2007, published 2013).

System: 10T1/2 cells
Assay: Transwell migration of 10T1/2 cells toward HUVECs
Type: cell-based
Procedure: FIGS. 13A-C show the role of the NO-sGC-cGMP pathway in perivascular cell recruitment and migration. (A) In bar graph form, cGMP production in cultured 10T1/2 cells in response to NO donor or PDE5 inhibitor. (B) In bar graph form, the migration of 10T1/2 cells in a transwell assay. 10T1/2 cell migration was assessed using Falcon HTS FluoroBlok inserts with 1 μm pores. GFP-expressing 10T1/2 cells were inoculated in the inserts, and HUVECs were inoculated in the outer well. Percent area of transwell filter covered by migrated 10T1/2 cells was determined. Medium only indicates no HUVECs in the outer well. ODQ, T-1032, Sildenafil, or Sildenafil+L-NMMA were added to the medium. *P<0.05 vs. control (HUVEC). (C) Images for transmigrated GFP-10T1/2 cells at the back side of the Fluoroblock insert after 10 hours with control vs. T-1032 treatment.
FIGS. 14A-B show the effect of PI3K inhibition on transwell migration of 10T1/2 cells toward HUVECs. 10T1/2 cell migration was assessed using Falcon HTS FluoroBlock inserts with 1 μm pores. GFP-expressing 10T1/2 cells were inoculated in the inserts and human umbilical vein endothelial cells (HUVECs) were inoculated in the outer well. (A) Images for transmigrated GFP-10T1/2 cells at the back side of the FluoroBlock insert after 16 hours. Images are 865 μm across. (B) Quantification of 10T1/2 cell transwell migration. Data are expressed as percentage relative to the control (HUVEC) migration of the same experimental batch. Medium represents no HUVECs in the outer well. LS294002 10 μM was added. n=4 each. *p<0.05 as compared to the control (HUVEC).
The effect of sGC inhibitor was next examined on 10T1/2 cell migration. […] Finally, the effect of PDE5 inhibitors on 10T1/2 cell migration was examined. […] L-NMMA abolished induction of 10T1/2 cell migration induced by Sildenafil. (Mann-Whitney U-test).
To elucidate the downstream signaling pathway of NO-dependent perivascular cell recruitment, the effect of PI3K inhibitor […] (10 μM) on the transwell 10T1/2 cell migration toward HUVECs was determined (FIG. 14A-B).

Compound: O=c1onc2cnc3ccccc3n12 [ODQ]
- 10T1/2 cell migration to HUVECs (10μM): significantly reduced

Compound: CCCc1nn(C)c2c(=O)[nH]c(-c3cc(S(=O)(=O)N4CCN(C)CC4)ccc3OCC)nc12 [Sildenafil]
- 10T1/2 cell migration (40 nM): significantly enhanced

Compound: O=c1cc(N2CCOCC2)oc2c(-c3ccccc3)cccc12 [LY291002]
- transwell 10T1/2 cell migration toward HUVECs (10 μM, 16 hours): significantly inhibited
